Laboratory results from patent US20050049278A1, “Benzo[1,3]dioxole compounds, pharmaceutical compositions thereof, and processes of making and using the same” (priority 2003, published 2005).
Where two headings read alike, the source gives them in different places.

Assays:
[1] = test system: HT29 (colorectal adenocarcinoma); experiment: Cell viability (cell proliferation assay), HT29; assay type: cell-based; details: Homo sapiens, HT-29, 48 to 72 hr exposure
Method: (§1) HEK293 cells were seeded into each well of a 96-well plate (5000 cells/well) and incubated overnight to allow the cells to attach. The culture media was removed and replaced with 100 μl of phenol red-free media containing the compounds 5a, 5a,b, and 9a at various concentrations. The cells were allowed to grow in the presence of the compounds for 48 hrs. At the end of the treatment, 20 μl of CellTiter 96 Aqueous One Solution reagent was added directly into each well, and the cells were incubated at 37° C. for 2 hrs. This reagent converts to a form that absorbs light at 490 nm by living cells. Thus, absorbance at 490 nm is proportional to the number of viable cells. The 490 nm absorbance was measured on a BioRad plate reader. Control wells containing no cells were included in this assay to correct for background absorbance.
(§2) The effect of compound 9a on the viability of cancer cell lines as well as dividing and non-dividing mouse Swiss3T3 cells was studied.
(§3) In particular, the cell proliferation assay, as described in Example 15, was used to test the effect of a 48 to 72 hr exposure of these cell lines to compound 9a at various concentrations.

HEK293 cells [2] = experiment: HEK293 cell viability, CellTiter 96 Aqueous One Solution Cell Proliferation assay; assay type: cell-based; details: Homo sapiens, HEK293, 48 h, read-out: EC50
Method: as §1, with “The effect of various doses of compounds 5a, 5a,b, and 9a on the viability of HEK293 cells was examined using the CellTiter 96 Aqueous One Solution Cell Proliferation assay (Promega). The HEK293 cells were cultured in DMEM media (Cellgro) or phenol red-free DMEM (Gibco) supplemented with 10% Fetal Bovine Serum (Tissue Culture Biologicals) and 1× Penicillin/Streptomycin/Glutamine (Gibco). The cells were grown at 37° C. with 5% CO2. HEK293” for “HEK293”

[3] = test system: OVCAR-4 (ovarian adenocarcinoma); experiment: Cell viability (cell proliferation assay), OVCAR-4; assay type: cell-based; details: Homo sapiens, 48 to 72 hr exposure
Method: as §1, §2, §3

[4] = test system: Swiss 3T3 non-dividing fibroblast; experiment: Cell viability (cell proliferation assay), non-dividing Swiss 3T3; assay type: cell-based, mouse
Method: as §1, §2, §3

[5] = test system: Swiss 3T3 dividing fibroblast; experiment: Cell viability (cell proliferation assay), dividing Swiss 3T3; assay type: cell-based; details: Mus musculus, 48 to 72 hr exposure
Method: as §1, §2, §3

U937 (lymphoma) = experiment: Cell viability (cell proliferation assay), U937; assay type: cell-based; details: Homo sapiens, U-937, 48 to 72 hr exposure
Method: as §1, §2, §3

HL-60 (leukemia) = experiment: Cell viability (cell proliferation assay), HL-60; assay type: cell-based; details: Homo sapiens, 48 to 72 hr exposure
Method: as §1, §2, §3

[6] = test system: HCT15 (colorectal adenocarcinoma); experiment: Cell viability (cell proliferation assay), HCT15; assay type: cell-based; details: Homo sapiens, HCT-15, 48 to 72 hr exposure
Method: as §1, §2, §3

H4 (glioma) = experiment: Cell viability (cell proliferation assay), H4; assay type: cell-based; details: 48 to 72 hr exposure
Method: as §1, §2, §3

[7] = test system: HeLa (cervical adenocarcinoma); experiment: Cell viability (cell proliferation assay), HeLa; assay type: cell-based; details: Homo sapiens, 48 to 72 hr exposure
Method: as §1, §2, §3

[8] = test system: HTS-tubulin (90% tubulin plus 10% microtubule associated proteins); experiment: Microtubule polymerization assay (turbidity at 340 nm); assay type: biochemical; details: absorbance at 340 nm, 30 minutes, 37° C., FIG. 3
Method: Microtubule polymerization assays were performed to determine if compounds, such as compound 9a, cause G2/M cell cycle arrest by affecting microtubule dynamics. A microtubule polymerization assay was performed that takes advantage of the observation that there is an increase in turbidity that can be measured at 340 nm as tubulin heterodimers polymerize to form microtubules. In brief, HTS-tubulin (90% tubulin plus 10% microtubule associated proteins; Cytoskeleton Inc., Denver, Colo.) was resuspended in G-PEM buffer (80 mM Pipes, pH 6.9; 2 mM MgCl2; 0.5 mM EDTA; 1 mM GTP) to 10 mg/ml. This suspension was clarified by centrifugation for 10 min. at 225,000×g. The supernatant was then diluted with G-PEM buffer to 2 mg/ml and 100 μl of this solution was added to the appropriate number of ½-area wells in a 96-well format (Corning). Each compound (10 μl of a 10× final concentration in 10% DMSO) was added to the wells in duplicate and immediately put into a pre-warmed (37° C.) Spectromax 190 plate reader. The absorbance was read at 340 nm immediately (time=0) and every minute thereafter for 30 minutes.
The tubulin mix was incubated in the presence of paclitaxel (a microtubule stabilizing agent), nocodazole (a microtubule destabilizing agent), vehicle control (DMSO), or varying concentrations of compound 9a (FIG. 3).

[9] = test system: HOP-18 (non-small cell lung carcinoma); experiment: Cell viability (cell proliferation assay), HOP-18; assay type: cell-based; details: Homo sapiens, 48 to 72 hr exposure
Method: as §1, §2, §3

HEK293 cells [10] = experiment: Cell cycle analysis by FACS of HEK293 cells; assay type: cell-based
Method: Fluorescence-activated cell sorting (FACS) analysis was used to examine the cell cycle state when the cells were incubated with compounds of formula (I) as well as several control compounds, including DMSO, noscapine (a known G2/M inhibitor), and colchicine (a known G2/M inhibitor).
In particular, HEK293 cells were cultured in DMEM media (Celigro) supplemented with 10% Fetal Bovine Serum (Tissue Culture Biologicals) and 1× Penicillin/Streptomycin/Glutamine (Gibco). The cells were grown at 37° C. with 5% CO2, plated in six-well plates at 2.5×10^6 cells/well, and treated for 16 to 24 hrs with the compounds at the concentrations shown in Table 1, below. The cells were then triturated off the bottom of the wells, washed 1× with PBS, then fixed with 70% ethanol, and stored at 4° C. before staining and FACS analysis.
The DNA content of cells was determined using a FacsVantage SE flow cytometry system (Becton Dickinson, San Jose, Calif.) and a Cellular DNA Flow Cytometric Analysis Kit (Roche Applied Science, Indianapolis, Ind.). Cell cycle analysis was performed using Cylchred 1.0.2 software.

[11] = test system: A549 (non-small cell lung carcinoma); experiment: Cell viability (cell proliferation assay), A549; assay type: cell-based; details: Homo sapiens, 48 to 72 hr exposure
Method: as §1, §2, §3

[12] = test system: SW480 (colorectal adenocarcinoma); experiment: Cell viability (cell proliferation assay), SW480; assay type: cell-based; details: Homo sapiens, 48 to 72 hr exposure
Method: as §1, §2, §3

[13] = test system: NCl/ADR (breast adenocarcinoma); experiment: Cell viability (cell proliferation assay), NCl/ADR; assay type: cell-based; details: 48 to 72 hr exposure
Method: as §1, §2, §3

[14] = test system: PC3 (prostate adenocarcinoma); experiment: Cell viability (cell proliferation assay), PC3; assay type: cell-based; details: 48 to 72 hr exposure
Method: as §1, §2, §3

[15] = HEK293, 0.1 μM, treated 16 to 24 hrs

Molecule `COc1ccc2c(c1N)C(=O)O[C@@H]2[C@H]1c2c(cc3c(c2OC)OCO3)CCN1C` [Compound 9a, 7-amino-6-methoxy-3-(4-methoxy-6-methyl-5,6,7,8-tetrahydro-[1,3]dioxolo[4,5-g]isoquinolin-5-yl)-3H-isobenzofuran-1-one] has an EC50 [1] of less than 100 nM, an EC50 (HEK293 cells [2]) of less than 50 nM and an EC50 (HEK293 cells [2]; text summary) of less than 1000 nM. For the same molecule, the EC50 [3] was less than 100 nM, the EC50 ([4]; Mus musculus, Swiss 3T3 non-dividing fibroblast, 48 to 72 hr exposure) was greater than 50 µM and the “effect on viability” value ([4]; non-dividing Swiss 3T3 fibroblasts, even at 50 μM) was “no effect was observed”. It also gave an EC50 [5] of less than 100 nM, an EC50 (U937 (lymphoma)) of less than 50 nM and an EC50 (HL-60 (leukemia)) of less than 50 nM. For the same molecule, the EC50 [6] was less than 100 nM, the EC50 (H4 (glioma)) was less than 50 nM and the EC50 [7] was less than 50 nM. The “effect on microtubule polymerization” value [8] was “dose-dependent decrease of microtubule polymerization”, the EC50 [9] was less than 100 nM and the “Percent of Cells in G1” value (HEK293 cells [10]; [15]) was 1%. For the same molecule, the “Percent of Cells in G2/M” value (HEK293 cells [10]; [15]) was 92.1%, the “Percent of Cells in S” value (HEK293 cells [10]; [15]) was 6.9% and the “concentration at which activity was observed” value (HEK293 cells [10]; HEK293, G2/M accumulation) was 0.1 µM. For the same molecule, the “accumulation of cells in G2/M” value (HEK293 cells [10]; HEK293, concentrations as in Table 1) was roughly 90%, the EC50 [11] was less than 100 nM and the EC50 [12] was less than 100 nM. It also gave an EC50 [13] of less than 50 nM and an EC50 [14] of less than 100 nM.
